Results: patent US20020137715A1, “Blocking Sp1 transcription factor broadly inhibits extracellular matrix gene expression in vitro and in vivo: implications for the treatment of tissue fibrosis” (priority 2001, published 2002)

Columns and labels:
COL1A2 promoter = test: Decoy oligonucleotides on COL1A2/CAT promoter activity in dermal fibroblasts (FIG. 5A); type: cell-based, human; conditions: −3500COL1A2/CAT, 24 h; for decrease of COL1A2 promoter activity: various amounts added to culture medium
Method: (§1) FIG. 5. Decoy Sp1 oligonucleotides inhibit COL1A2 promoter activity in vitro and in vivo. A, Confluent human dermal fibroblast cultures are transfected with 5 μg of −500COL1A2/CAT reporter gene construct. After glycerol shock, increasing amounts (2, 5, 10 μg) of Sp1 (open bars) or mSp1 (hatched bars) oligonucleotides are added to the culture medium. Forty hours later, CAT activity is determined and compared to that of cultures without oligonucleotides (closed bar). Relative promoter activity (mean±SD) of three separate experiments performed in duplicate is presented. B, Four transgenic mice carrying 17 kb of mouse COL1A2 promoter linked to the luciferase gene in their genome are injected subcutaneously at distant sites (approx. 2 cm apart) with 15 μg of either Sp1 (open bar) or mSp1 (hatched bar) oligonucleotides in 25 μl of H2O. After a 30-hr incubation, animals are sacrified and luciferase activity is determined in the skin surrounding the injection sites using identical amounts of protein extracts (40 μg). A non-injected skin area is used as control (solid bar).
Transient cell transfection and CAT assays. Transient cell transfections are performed with the calcium phosphate/DNA co-precipitation procedure. CAT activity is measured using [^14C]chloramphenicol as substrate (Gorman et al, Mol Cell Biol 2: 1044-1051, 1982) followed by thin layer chromatography and quantitation with a phosphorimager.
Decoy oligonucleotides. In some in vitro experiments decoy double-stranded oligonucleotides are used in an attempt to interfere with Sp1 binding to its cognate cis-elements within the COL1A2 promoter. […] 24 h later, CAT activity, representing promoter activity, is determined.
Decoy Sp1 oligonucleotides inhibit COL1A2 promoter activity in vitro and in vivo. Since Sp1 is fundamental for high expression of several ECM genes, short oligonucleotides bearing a consensus Sp1 binding sequence are analyzed for their efficacy as decoys to decrease collagen promoter activity. […] Promoter activity is determined 24 h later. […]

mouse COL1A2 promoter = test: Decoy oligonucleotides in COL1A2/luciferase transgenic mice (FIG. 5B); type: in vivo; conditions: 15 μg intradermally; COL1A2/lux transgenic mice; 24 hours; vs control skin
Method: as §1, with “B, Four transgenic mice carrying 17 kb of mouse COL1A2 promoter linked to the luciferase gene in their genome are injected subcutaneously at distant sites (approx. 2 cm apart) with 15 μg of either Sp1 (open bar) or mSp1 (hatched bar) oligonucleotides in 25 μl of H2O.” left out, “A non-injected skin area is used as control (solid bar).” left out
Treatment of transgenic mice. […] Luciferase activity using identical amounts of extracted proteins is determined with a commercial assay kit (Promega).
Next, decoy Sp1 experiments are performed in a transgenic mouse model in which 17 kb of the mouse COL1A2 promoter drives the expression of the luciferase gene. […] Luciferase activity is determined 24 hours later in the skin region surrounding the injections. […]

COL7A1 promoter = test: Decoy oligonucleotides on COL7A1 promoter activity; type: cell-based, human; conditions: compared with COL1A2 promoter
human dermal fibroblasts = type: cell-based
Sp1 = Sp1 (Homo sapiens, UniProt P08047); test: EMSA binding of Sp1 to oligonucleotide; conditions: EMSA experiments
Sp1, sequence (P08047 whole entry): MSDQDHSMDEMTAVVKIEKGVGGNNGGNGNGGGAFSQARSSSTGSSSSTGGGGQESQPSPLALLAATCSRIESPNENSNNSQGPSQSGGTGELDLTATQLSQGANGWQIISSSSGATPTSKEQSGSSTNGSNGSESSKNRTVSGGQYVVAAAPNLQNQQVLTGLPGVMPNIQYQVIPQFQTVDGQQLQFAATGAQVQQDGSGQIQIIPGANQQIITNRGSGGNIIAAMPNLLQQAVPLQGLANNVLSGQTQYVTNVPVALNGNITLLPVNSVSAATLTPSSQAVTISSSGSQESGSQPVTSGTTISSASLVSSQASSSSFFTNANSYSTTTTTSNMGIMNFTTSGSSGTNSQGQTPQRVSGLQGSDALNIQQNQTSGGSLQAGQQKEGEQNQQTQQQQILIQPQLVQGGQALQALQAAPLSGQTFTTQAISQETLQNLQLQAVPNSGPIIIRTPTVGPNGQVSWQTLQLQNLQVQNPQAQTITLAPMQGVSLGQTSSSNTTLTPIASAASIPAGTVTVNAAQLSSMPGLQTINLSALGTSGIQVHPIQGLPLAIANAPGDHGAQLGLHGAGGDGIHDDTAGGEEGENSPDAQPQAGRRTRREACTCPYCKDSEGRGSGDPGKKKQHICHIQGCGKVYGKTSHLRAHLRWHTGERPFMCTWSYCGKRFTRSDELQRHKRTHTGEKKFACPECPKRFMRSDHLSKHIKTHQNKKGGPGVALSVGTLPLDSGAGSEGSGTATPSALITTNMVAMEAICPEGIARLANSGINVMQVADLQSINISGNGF
Method: Electrophoresis mobility shift assays (EMSA). A 22-mer consensus Sp1 oligonucleotide 5′-[…]-3′ was used as a probe to determine Sp1/DNA interactions. For supershift experiments, nuclear extracts (5 μg) are incubated for 2 h on ice with an anti-Sp1 antibody (Santa Cruz Biotechnologies, Santa Cruz, Calif.) prior to the binding reactions. Binding mixtures are separated electrophoretically on native 4% acrylamide gels, as described previously (Vindevoghel et al, 1997).
Decoy Sp1 oligonucleotides inhibit COL1A2 promoter activity in vitro and in vivo. Since Sp1 is fundamental for high expression of several ECM genes, short oligonucleotides bearing a consensus Sp1 binding sequence are analyzed for their efficacy as decoys to decrease collagen promoter activity. For this purpose. two approaches are used. First, human dermal fibroblasts are transfected with the −3500COL1A2/CAT construct, and various amounts of either wild-type or mutant Sp1 double-stranded oligonucleotides (SEQ. ID. NO:2 and SEQ. ID. NO: 3. respectively) are added to the culture medium. Promoter activity is determined 24 h later. […] Maximal inhibition (55%) is observed with addition of […] of Sp1 oligonucleotide.

Substance	Maximal inhibition of COL1A2 promoter activity (COL1A2 promoter; 15 μg/plate) [%]	decrease of COL1A2 promoter activity (COL1A2 promoter)	reduction of COL1A2 promoter activity (luciferase activity in skin) (mouse COL1A2 promoter)	inhibition of COL7A1 promoter (COL7A1 promoter)	cellular toxicity (human dermal fibroblasts)	binding of Sp1 to the oligonucleotide's Sp1 binding site (Sp1)
Sp1 oligonucleotide: 22-mer consensus Sp1 double-stranded decoy oligonucleotide, 5′-ATTCGATCGGGGCGGGGCGAGC-3′ (double-stranded, further chemistry not given here)	55	efficiently decreases COL1A2 promoter activity in a dose-dependent manner	about 70%	equally inhibited	No cellular toxicity	
mSp1: mutant double-stranded oligonucleotide used as a control, 5′-ATTCGATCGTAGCGATGCGAGC-3′ (double-stranded, further chemistry not given here) [reference compound]		not	no effect		No cellular toxicity	incapable of binding Sp1
